# What was measured:
# mice [1] = assay: Delay fear conditioning test after QR2 shRNA lentivirus injection into the CA1 region of hippocampus; assay type: in vivo, mouse
# Experimental: M&M—A delay fear conditioning test was performed on two groups of mice (10 mice per group) injected with Lentivirus encoding the QR2 shRNA or a scrambled sequence one week before the experiment. The Lentivirus was injected in to the CA1 region of hippocampus. The conditioning apparatus used was four New Biotechnology Ltd. (NBT) chambers, (Panlab Harvard Apparatus, Barcelona, Spain) consisting of a Plexiglas walls (25×25×25 cm) with a 16 stainless steel rods grid floor, a dim light and speakers. The apparatus was located inside a sound proof larger, insulated plastic cabinet that excluded outside light and noise. On day 1 (training), the mice were transported to the nearby testing room and set next to the conditioning chambers for a 5 min resting period with lights off. Each chamber was wiped with 30% ethanol solution before training and each mouse was placed in the chamber individually during training. For delay fear conditioning, mice were pre-exposed to an experimental chamber for 5 min, and received 5 trials in which 4000 Hz, tone, applied for 10 seconds at 76 dB (conditioned stimuli; CS) co-terminated by a 0.36 mA foot shock applied for 2 second (unconditioned stimuli; US), separated by 3.5 min inter-trial interval (ITI). After the last training trial, the mice were left in the conditioning chamber for another 120 s and were then placed back in their home cages.
# On day 2 and day 8 (1 week later) (context fear test), the mice were returned to the same experimental chamber with the same contextual configuration for 10 min. Freezing behavior was recorded. On the third day and day 9 (1 week later) (tone fear test), the mice were set next to the conditioning chambers for a 5 min resting period with lights on, then mice were placed into the same experimental chamber, with novel contextual configuration (no light, and a smooth black Plexiglas floor), for 5 min during which freezing was record under infra-red light source. […] The animals' behavior was recorded, and the data analyzed by Freeze Frame 3.0 software (Coulbourn Instruments, PA, USA). […]
# rats [2] = assay: Memory extinction following a CTA paradigm in QR2 shRNA injected animals; assay type: in vivo, rat; conditions: repeated measure ANOVA; FIG. 11
# Experimental: Aversion index—the aversion index is calculated by the following equation [(total water ingested/(novel taste liquid ingested+water ingested))*100].
# Conditioned Taste Aversion (CTA)—Two groups of rats were deprived from water for a period of 24 hours. This was followed by 3 days of restriction were the rats received two pipettes each filled with 10 ml of water for 20 minutes each day. On the fourth day both groups received two pipettes each filled with 10 ml of an unfamiliar tasting liquid, either saccharine (0.1% w/v) or NaCl (0.3% w/v), for 20 minutes. Forty minutes following the exposure to the novel liquid the rats in the experimental group received an injection of LiCl (prepared in double distilled water (DDW)) (2% bodyweight, intraperitoneally (i.p.)) and those in the control received an injection of physiological saline (2% bodyweight, i.p.).
# mice [3] = assay: Morris Water Maze after QR2 shRNA injection into hippocampus (CA1 region); assay type: in vivo, mouse
# Experimental: M&M—Spatial reference memory in the Morris Water Maze (MWM) was determined as previously described (Vorhees, Williams 2006). The pool was 1.2 m in diameter and the water was rendered opaque by the addition of white tempera. Water temperature was kept at 22° C. The platform was 8 cm in diameter. All behavioral tests and trials were performed at the same time of day (±1 hr) during the animal's light phase. The mice were acclimatized in testing room for 15 min. Mice were trained in four trials per day (trial length 60 s with 30 s ITI), over 4 consecutive days. If an animal fails to locate the platform within training time, it is usually picked up and placed on the platform for 15 s. For probe trials, the platform was removed from the maze and the animals were allowed to search for 60 s. Learning was evaluated by monitoring escape latencies to a hidden (submerged) platform and time spent in each quadrant of the maze (quadrant occupancy) with an automated video tracking system, and the data analyzed by EthoVision XT9 (Noldus Information Technology, USA). Swimming speed was similar in QR2 shRNA and scrambled injected animals (data not shown).
# rats [4] = assay: Novel taste (saccharin) choice test after injection of QR2 shRNA virus into the IC; assay type: in vivo, rat; conditions: lentivirus injected into IC; choice test three days after saccharin; mean+/-SEM, n=12
# Experimental: Micro-infusion—Rats were anesthetized with Equithesin (0.45 ml/100 g) (2.12% w/v MgSO4, 10% v/v ethanol, 39.1% v/v 1,2,-propranolol, 0.98% w/v sodium pentobarbital, and 4.2% w/v chloral hydrate), restrained in a stereotactic apparatus (Stoelting, USA) and injected bilaterally with a 10 mm 28 gauge injection cannula aimed at the rat gustatory cortex (anteroposterior, +1.2 mm relative to bregma; lateral, ±5.5 mm; ventral, −5.5 mm; (Paxinos and Watson, 1986). The injection cannula was connected via PE20 tubing to a Hamilton microsyringe driven by a micro-infusion pump (CMA/100; Carnegie Medicin). […] The injection cannula was left in position before withdrawal for an additional 1 min to minimize dragging of the injected liquid along the injection tract. To avoid lateral bias, animals were injected interchangeably between both sides. Following the microsurgery, animals were injected i.m. with antibiotic and were allowed to recuperate for one week. […]
# Preference index—the preference index was calculated by the following equation [(total novel taste liquid ingested/(novel taste liquid ingested+water ingested))*100]. […]
# QR2 mRNA [5] = assay: QR2 mRNA expression in primary cortical cells treated with QR2 shRNA lentiviral clones; assay type: cell-based; conditions: rat primary cortical cells, week long incubation, compared to scrambled virus; FIG. 8
# Experimental: (§1) mRNA quantification—We used the RNeasy lipid tissue kit (QIAGEN) according to the manufacturer's instructions in order to extract the RNA. We then evaluated RNA concentration and purity using a nanodrop spectrophotometer.
# (§2) The cDNA synthesis was accomplished using the High Capacity Reverse Transcription Kit (ABI) according to the manufacturer's instructions. The reaction was carried out in a total volume of 20 μl on 1000 ng of RNA.
# (§3) The qPCR reaction was performed in a total volume of 10 μl on 10 ng of cDNA. We used the following TaqMan assays (Applied Biosystems): QR2 (Rn01434728_g1), NQO1 (RN00566528_m1), glyceraldehyde-3-phosphate dehydrogenase, GAPDH (Rn01775763_g1). The reactions were carried out per the manufacturer's instructions.
# (§4) Real Time-PCR analysis was performed using the PCR System STEP-ONE plus (Applied Biosystems). Relative mRNA levels were calculated using the ΔΔCt method using GAPDH as a normalizing gene: ΔΔCt=[(Ct(gene of interest)−Ct(GAPDH)) of the untreated group]−[(Ct(gene of interest)−Ct(GAPDH)) of the treated group]. The fold increase is then calculated as such: fold increase=2−ΔΔCt. […]
# For this purpose, we evaluated three different clones (Sigma-Aldrich, Israel). […] We then evaluated QR2 mRNA expression.
# QR2 mRNA [6] = assay: QR2 mRNA expression in the IC after stereotactic injection of QR2 shRNA virus (RT-PCR); assay type: in vivo, rat; conditions: compared to scrambled virus group, n=12, p<0.005; FIG. 12
# Experimental: Tissue extraction—Following the learning protocol the insular cortex was removed by hand. The insular cortex was identified through cortical landmarks, the rhinal fissure and the medial cerebral artery. The insular cortex was immediately placed in liquid nitrogen and then stored at −80° C.
# as §1, §2, §3, §4
substance,measurement,setting,value
"v394: shRNA construct directed against mouse QR2 (Sigma-Aldrich clone), subcloned into lentiviral plasmid pFUGW; chosen clone used for the injected virus (CCGGCAGUCACUGUGUCUGAUUUAUCUCGAGAUAAAUCAGACACAGUGACUGUUUUUG)",Long term memory (response to conditioned context and tone),"mice [1]; 1 week later, vs scrambled sequence, context p=0.03, tone p=0.031",enhanced long term memory
same,"Freezing response, context test","mice [1]; day 2, vs scrambled sequence, n=10, p=0.031",froze significantly frequently
same,"Freezing response, tone test","mice [1]; day 3, vs scrambled sequence, n=10, p=0.003",froze significantly frequently
same,Memory extinction (aversion index over time),rats [2],significant extinction on Day 3
same,"Quadrant occupancy (time in target quadrant), probe test","mice [3]; after completion of training, vs scrambled injected mice, p=0.031",preferential quadrant occupancy
same,Escape latency to hidden platform,"mice [3]; day 4 of training, vs scrambled injected mice, p=0.036",shorter latency
same,Swimming speed,"mice [3]; vs scrambled injected animals, data not shown",similar
same,"Crossings of the platform location, probe test","mice [3]; vs scrambled injected mice, p=0.029",more times
same,Preference index (PI),rats [4],76.3+/−2.14
same,QR2 mRNA expression,QR2 mRNA [5],slightly more effective
same,QR2 mRNA expression in the IC,QR2 mRNA [6],significantly lower QR2 mRNA expression

# Source: patent US10676747B2, “Methods for improving cognitive function via modulation of quinone reductase 2” (Carmel-Haifa University Economic Corp. Ltd., priority 2014, dated 2020)
